Several values for one entry are separate records, joined by “and”; a condition that tells them apart may be missing. Equal entries are not always repeated.

The target of test [1] is T1, FLT3(WT) (Homo sapiens, UniProt P36888). In words: Binding constant (Kd), competition binding with qPCR readout. For orientation: Real-time PCR tracks product formation cycle by cycle.
Test [2] has as its system Aurora kinase in MV4-11 cells. Briefly: Cell signaling Western blot. In kind it is cell-based, human. The settings on record: FIG. 24. On the procedure:
Immunoblot assays: Cells were treated with Compound 7 at various concentrations and collected for cell lysates. The total and phosphorylated levels of the indicated proteins were determined by Western Blot.
(A western blot detects proteins with antibodies after separation by electrophoresis.)

A further test concerns MV4-11. In words: Cytotoxicity in high serum conditions (MTS). The test is classed as cell-based, human. The note with it: MV4-11, 72 hours, 10% vs 30%, 50%, 80% FBS. On the procedure:
Compound 7 was tested in a dose-dependent manner at different serum concentrations. […] In this experiment, MV4-11 (n=6) and EOL-1(n=3˜6) cells were treated with or without Compound 7 for 72 hours in medium containing normal (10%) or high serum (30%, 50%, 80%) FBS with an MTS assay serving as an end point.

Test [3] relates to Ba/F3 cells transfected with FLT3 ITD. In words: Cytotoxicity in isogenic transfected Ba/F3 cells (Table 4). In kind it is cell-based, Murin. The settings on record: Mus musculus, BaF3, read-out: IC50 in Transfected Ba/F3 cells, FLT3 ITD.
The target in a further test is BTK C481S (Homo sapiens, UniProt Q06187, C481S). In words: Comparative potency against BTK (Table 8). The note with it: x printed without key. In kind it is biochemical.
Another test has as its system U2932. Briefly: Cytotoxicity, MTS cell viability. In kind it is cell-based. The settings on record: Homo sapiens, 72 h, ABC-DLBCL, 3 days MTS. On the procedure: (§1) Cells were seeded in a 96 well plate and treated with either vehicle (DMSO) or compound 7 at 10 different concentrations for 3 days at 37° C. and 5% CO2. Cell viability was assessed using CellTiter 96 AQueous one solution (MTS Promega Cat#G3581), and IC50 values calculated using GraphPad Prism 7 software.

Another test deals with BJAB. Briefly: Cytotoxicity, MTS cell viability. In kind it is cell-based. The settings on record: Homo sapiens, 72 h, GCB-DLBCL, 3 days MTS. On the procedure: as §1
The next test deals with OCI-LY3. In words: Cytotoxicity, MTS cell viability. The test is classed as cell-based. The note with it: Homo sapiens, 72 h, ABC-DLBCL, 3 days MTS. On the procedure: as §1
The next test concerns L1236. In words: Cytotoxicity, MTS cell viability. The settings on record: L-1236, 72 h, HL, 3 days MTS. In kind it is cell-based. On the procedure:
as §1

A further test deals with SU-DHL2. In words: Cytotoxicity, MTS cell viability. In kind it is cell-based. The settings on record: Homo sapiens, SU-DHL-2, 72 h, ABC-DLBCL, 3 days MTS. On the procedure: as §1
For a further test, the system named is MHH-Call4. Briefly: Cytotoxicity, MTS cell viability. The test is classed as cell-based. The note with it: MHHCALL4, 72 h, B-ALL, 3 days MTS. On the procedure:
as §1

Another test has as its system DOHH2. Briefly: Cytotoxicity, MTS cell viability. The note with it: Homo sapiens, DOHH-2, 72 h, FL, 3 days MTS. In kind it is cell-based. On the procedure: as §1
A further test concerns CLL patient samples. In words: Ex vivo assay for patient sensitivity (MTS, 3-day culture). In kind it is cell-based, human. The note with it: N evaluated 56. On the procedure:
(§2) 85 Patients with a diagnosis of acute myeloid leukemia (AML), 15 patients with myelodysplastic syndrome/myeloproliferative neoplasms (MDS/MPN), 18 patients with acute lymphoblastic leukemia (ALL), and 56 patients with chronic lymphocytic leukemia (CLL) were evaluated for sensitivity to the multi-kinase inhibitor, Compound 7, using an ex vivo assay. Sensitivity to Compound 7 was evaluated across a concentration range from 10 nM to 10 μM. Cell viability was assessed using a colorimetric, tetrazolium-based MTS assay after a 3-day culture period, and IC50 values were calculated as a measure of drug sensitivity.

For a further test, the system named is AML patient samples. Described as above. In kind it is cell-based, human. The settings on record: N evaluated 85, 10 nM to 10 μM. On the procedure: as §2
In a further test the test system is ALL patient samples. The description is as above. The test is classed as cell-based, human. The note with it: N evaluated 18. On the procedure:
as §2

The subject of another test is MDS/MPN patient samples. The test is described as above. The test is classed as cell-based, human. The settings on record: N evaluated 15. On the procedure: as §2
The target of test [4] is T1, FLT3(WT). In words: Inhibition of FLT3, kinase IC50. The test is classed as biochemical. On the procedure: RBC HotSpot Kinase Assay Protocol:
Reagents used: Base Reaction buffer; 20 mM Hepes (pH 7.5), 10 mM MgCl2, 1 mM EGTA, 0.02% Brij35, 0.02 mg/ml BSA, 0.1 mM Na3VO4, 2 mM DTT, 1% DMSO. Required cofactors are added individually to each kinase reaction.
Compound 7 was dissolved in 100% DMSO to a specified concentration. The serial dilution was conducted by epMotion 5070 in DMSO. The substrate was freshly prepared in Reaction Buffer and any required cofactors to the substrate solution were added. The kinase was added to the solution and gently mixed. Compound 7 was added in 100% DMSO into the kinase reaction mixture by Acoustic technology (Echo550; nanoliter range), and incubated for 20 min at room temperature. ^33P-ATP (Specific activity 10 μCi/μl) was added into the reaction mixture to initiate the reaction, which was incubated for 2 hours, whereupon kinase activity was detected by the filter-binding method.

Test [5] concerns Ba/F3 cells transfected with FLT3 ITD-D835Y. In words: Cytotoxicity in isogenic transfected Ba/F3 cells (Table 4). The test is classed as cell-based, Murin. The note with it: Mus musculus, BaF3, read-out: IC50 in Transfected Ba/F3 cells, FLT3 ITD-D835Y.
For the next test, the target named is T2, FLT3(K663Q) (Homo sapiens, UniProt P36888, K663Q).
T2 construct: made in house; host or cells: E. coli BL21-derived host (T7 phage) or HEK-293
In words: Binding constant (Kd), competition binding with qPCR readout.

In test [6] the test system is Ba/F3 cells transfected with FLT3 WT. Briefly: Cytotoxicity in isogenic transfected Ba/F3 cells (Table 4). The test is classed as cell-based, Murin. The settings on record: Mus musculus, BaF3, read-out: IC50 in Transfected Ba/F3 cells, FLT3 WT.
Test [7] deals with Ba/F3-ITD + 691 (ITD + F691L). In words: Antiproliferative activity (Table 6). In kind it is cell-based, Murin. The note with it: 72 h.
The subject of the next test is Ramos. In words: Apoptosis in B-cell malignancies (annexin V/PI, cleaved PARP). In kind it is cell-based. The note with it: increasing concentrations. On the procedure:
Mechanistic studies were undertaken to determine the mechanism of action for Compound 7. The apoptotic state of treated cells was determined by staining with annexin V and propidium iodide (PI), then analysis with the BD Accuri C6 flow cytometer, whereby live cells are annexin V/PI negative, early apoptotic cells are annexin V positive and late apoptotic cells are annexin V and PI positive. In addition production of cleaved PARP, a classic apoptotic marker, was assayed by western blotting with specific antibodies.

Chain of BTK C481S (Q06187 whole entry C481S): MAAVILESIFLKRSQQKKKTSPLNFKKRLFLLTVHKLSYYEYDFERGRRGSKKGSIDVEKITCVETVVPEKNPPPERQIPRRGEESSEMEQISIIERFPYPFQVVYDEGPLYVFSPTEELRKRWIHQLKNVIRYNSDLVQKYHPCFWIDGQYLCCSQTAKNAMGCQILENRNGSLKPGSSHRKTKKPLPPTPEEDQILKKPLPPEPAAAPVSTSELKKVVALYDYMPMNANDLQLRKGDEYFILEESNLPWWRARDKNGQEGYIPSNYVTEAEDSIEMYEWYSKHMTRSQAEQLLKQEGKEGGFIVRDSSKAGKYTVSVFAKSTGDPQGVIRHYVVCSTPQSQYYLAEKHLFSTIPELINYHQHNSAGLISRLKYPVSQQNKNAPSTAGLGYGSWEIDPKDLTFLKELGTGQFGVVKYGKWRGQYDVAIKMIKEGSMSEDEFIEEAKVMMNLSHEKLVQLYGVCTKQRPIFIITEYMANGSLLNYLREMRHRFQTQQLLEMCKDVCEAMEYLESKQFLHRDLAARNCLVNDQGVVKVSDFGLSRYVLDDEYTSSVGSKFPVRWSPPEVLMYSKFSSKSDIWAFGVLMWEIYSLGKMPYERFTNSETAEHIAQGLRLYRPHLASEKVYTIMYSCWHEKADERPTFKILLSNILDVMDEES

Broadly, the Kd is the free concentration of one partner at which half of the binding sites on the other are occupied at equilibrium, for simple one-to-one binding. On to `Cc1cnc(-c2ccc(-c3ccc(NC(=O)Nc4c(F)cc(F)cc4F)cc3F)c3c2C(=O)NC3)[nH]1` [Compound 7, 1-{3-fluoro-4-[7-(5-methyl-1H-imidazol-2-yl)-1-oxo-2,3-dihydro-1H-isoindol-4-yl]-phenyl}-3-(2,4,6-trifluorophenyl)urea], for which the equilibrium dissociation constant (Kd) at FLT3(WT) [1] amounted to 0.24 nM; at FLT3(K663Q), 0.55 nM. Further, in test [2], the “Aurora kinase activity and signaling (Western blot)” value was “inhibits Aurora kinase activity and signaling”. For the same compound, the “Activity at high serum concentration” value in the test with MV4-11 was “retains high activity at high serum concentration”. The IC50 in [3] is 0.5 nM; at BTK C481S, 2.5 nM; with U2932, 632 nM; in the test on BJAB it was 882 nM; with OCI-LY3 it was 830 nM; with L1236, 7820 nM. In addition, the IC50 in the test on SU-DHL2 is 744 nM; in the test with MHH-Call4 it was 27.8 nM; with DOHH2, 2.94 nM; on FLT3(WT) [4] it was 8.75 nM; in [5] it was 19.3 nM; in test [6], 11.3 nM. Besides, the IC50 in [7] is 0.43 nM. In addition, the “% samples with IC50 < 0.1 μM” value with CLL patient samples was 41 (23/56) %; in the test on AML patient samples, 60% and 60 (51/85) %; in the test with ALL patient samples, 61 (11/18) %; with MDS/MPN patient samples, 53 (8/15) %. Further, the “Apoptosis induction versus ibrutinib” value in the test on Ramos was “induced apoptosis more effectively than ibrutinib at all concentrations tested”.

Source of the values: patent US20180344702A1, “METHODS FOR TREATING PATIENTS WITH HEMATOLOGIC MALIGNANCIES” (Aptose Biosciences, Inc., priority 2017, published 2018).
